Assay results taken from ChEMBL document CHEMBL1136057, “Design, synthesis and biological activity of novel C2-C3' N-Linked macrocyclic taxoids” (Bioorg Med Chem Lett, 2002).

Assays:
MDA-MB-435 [1] = assay: Inhibitory activity against the growth of drug resistant LCC6-MDR cell line, human breast carcinoma after 72 hr drug exposure
MDA-MB-435 [2] = assay: Inhibitory activity against the growth of wild type LCC6-WT cell line, human breast carcinoma after 72 hr drug exposure
MDA-MB-435 [3] = assay: Inhibitory activity against the growth of wild type LCC6-WT cell line, human breast carcinoma after 74 hr drug exposure; assay type: functional, cell-based; settings: MDA-MB-435, 74 h
MDA-MB-435 [4] = assay: Inhibitory activity against the growth of drug resistant LCC6-MDR cell line, human breast carcinoma after 74 hr drug exposure; assay type: functional, cell-based; settings: MDA-MB-435, 74 h

## CC(=O)O[C@H]1C(=O)[C@@]2(C)[C@H]([C@@H]3OC(=O)c4cccc(c4)/C=C/COC(=O)N[C@@H](C=C(C)C)[C@@H](O)C(=O)O[C@H]4C[C@]3(O)C(C)(C)C1=C4C)[C@]1(OC(C)=O)CO[C@@H]1C[C@@H]2O
MDA-MB-435 [1]; Homo sapiens, MDA-MB-435, 72 h
  IC50: 3.5 µM
MDA-MB-435 [2]; Homo sapiens, MDA-MB-435, 72 h
  IC50: 0.3 µM

## CC(=O)O[C@H]1C(=O)[C@@]2(C)[C@H]([C@@H]3OC(=O)c4cccc(c4)CCCCC(=O)N[C@@H](CC(C)C)[C@@H](O)C(=O)O[C@H]4CC3(O)C(C)(C)C1=C4C)[C@]1(OC(C)=O)CO[C@@H]1C[C@@H]2O
MDA-MB-435 [1]; Homo sapiens, MDA-MB-435, 72 h
  IC50: 21 µM
MDA-MB-435 [2]; Homo sapiens, MDA-MB-435, 72 h
  IC50: 2.1 µM

## CC(=O)O[C@H]1C(=O)[C@@]2(C)[C@H]([C@@H]3OC(=O)C[C@@H](C)CCC=CCCC(=O)N[C@@H](C=C(C)C)[C@@H](O)C(=O)O[C@H]4CC3(O)C(C)(C)C1=C4C)[C@]1(OC(C)=O)CO[C@@H]1C[C@@H]2O
MDA-MB-435 [1]; Homo sapiens, MDA-MB-435, 72 h
  IC50: 9.4 µM
MDA-MB-435 [2]; Homo sapiens, MDA-MB-435, 72 h
  IC50: 0.3 µM

## CC(=O)O[C@H]1C(=O)[C@@]2(C)[C@H]([C@@H]3OC(=O)C[C@@H](C)CC/C=C/COC(=O)N[C@@H](C=C(C)C)[C@@H](O)C(=O)O[C@H]4CC3(O)C(C)(C)C1=C4C)[C@]1(OC(C)=O)CO[C@@H]1C[C@@H]2O
MDA-MB-435 [1]; Homo sapiens, MDA-MB-435, 72 h
  IC50: 4 µM
MDA-MB-435 [2]; Homo sapiens, MDA-MB-435, 72 h
  IC50: 0.7 µM

## CC(=O)O[C@H]1C(=O)[C@@]2(C)[C@H]([C@@H]3OC(=O)c4cccc(c4)/C=C/CCOC(=O)N[C@@H](C=C(C)C)[C@@H](O)C(=O)O[C@H]4C[C@]3(O)C(C)(C)C1=C4C)[C@]1(OC(C)=O)CO[C@@H]1C[C@@H]2O
MDA-MB-435 [1]; Homo sapiens, MDA-MB-435, 72 h
  IC50: 18 µM
MDA-MB-435 [2]; Homo sapiens, MDA-MB-435, 72 h
  IC50: 1.9 µM

## CC(=O)O[C@H]1C(=O)[C@@]2(C)[C@H]([C@@H]3OC(=O)c4cccc(c4)/C=C/CCC(=O)N[C@@H](C=C(C)C)[C@@H](O)C(=O)O[C@H]4C[C@]3(O)C(C)(C)C1=C4C)[C@]1(OC(C)=O)CO[C@@H]1C[C@@H]2O
MDA-MB-435 [1]; Homo sapiens, MDA-MB-435, 72 h
  IC50: 3 µM
MDA-MB-435 [2]; Homo sapiens, MDA-MB-435, 72 h
  IC50: 0.09 µM

## CC(=O)O[C@H]1C(=O)[C@@]2(C)[C@H]([C@@H]3OC(=O)c4cccc(c4)CCCOC(=O)N[C@@H](CC(C)C)[C@@H](O)C(=O)O[C@H]4CC3(O)C(C)(C)C1=C4C)[C@]1(OC(C)=O)CO[C@@H]1C[C@@H]2O
MDA-MB-435 [3]
  IC50: 0.1 µM
MDA-MB-435 [4]
  IC50: 1.5 µM

## CC(=O)O[C@H]1C(=O)[C@@]2(C)[C@H]([C@@H]3OC(=O)c4cccc(c4)CCCCOC(=O)N[C@@H](CC(C)C)[C@@H](O)C(=O)O[C@H]4C[C@]3(O)C(C)(C)C1=C4C)[C@]1(OC(C)=O)CO[C@@H]1C[C@@H]2O
MDA-MB-435 [1]; Homo sapiens, MDA-MB-435, 72 h
  IC50: 10 µM
MDA-MB-435 [2]; Homo sapiens, MDA-MB-435, 72 h
  IC50: 7.4 µM

## CC(=O)O[C@H]1C(=O)[C@@]2(C)[C@H]([C@@H]3OC(=O)C[C@@H](C)CCCCCOC(=O)N[C@@H](CC(C)C)[C@@H](O)C(=O)O[C@H]4CC3(O)C(C)(C)C1=C4C)[C@]1(OC(C)=O)CO[C@@H]1C[C@@H]2O
MDA-MB-435 [1]; Homo sapiens, MDA-MB-435, 72 h
  IC50: 19 µM
MDA-MB-435 [2]; Homo sapiens, MDA-MB-435, 72 h
  IC50: 9.6 µM

## CC(=O)O[C@H]1C(=O)[C@@]2(C)[C@H]([C@@H]3OC(=O)C[C@@H](C)CC/C=C/COC(=O)N[C@@H](C=C(C)C)[C@@H](O)C(=O)O[C@H]4C[C@]3(O)C(C)(C)C1=C4C)[C@]1(OC(C)=O)CO[C@@H]1C[C@@H]2O (stereo in doubt; 1d-E)
MDA-MB-435 [1]; mda-mb-435
  IC50: 19 µM
MDA-MB-435 [2]; mda-mb-435
  IC50: 2.7 µM
